For orientation: IC50 means the concentration needed to halve the response being measured. Read a high IC50 as weaker potency.

The target of this assay is T1, IspH (LytB) (Aquifex aeolicus, UniProt O67625).
T1 sequence (O67625 1-289): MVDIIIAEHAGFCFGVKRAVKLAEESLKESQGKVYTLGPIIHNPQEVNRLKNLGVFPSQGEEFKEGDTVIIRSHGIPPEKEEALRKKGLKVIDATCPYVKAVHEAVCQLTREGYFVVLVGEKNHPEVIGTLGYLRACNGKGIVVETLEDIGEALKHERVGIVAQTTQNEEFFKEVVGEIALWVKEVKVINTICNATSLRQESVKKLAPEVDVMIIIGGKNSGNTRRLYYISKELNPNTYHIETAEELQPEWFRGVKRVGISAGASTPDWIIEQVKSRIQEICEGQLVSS
The experiment in a line: HYSCORE/CW-EPR with […] and […]-labeled IspH. Format: biochemical.

Take BPH-293 [compound 7]: the 50% inhibitory concentration (IC50) was found to be 38 µM.

The values above are taken from paper PMC3092291 (2011).
